# In PMC10179080, “In Vivo and In Vitro Characterization of Close Analogs of Compound KA-11, a New Antiseizure Drug Candidate” (International Journal of Molecular Sciences, 2023):
# Experiments:
# [1] = system: seizure susceptibility in mice; assay: Timed ivPTZ seizure threshold test; assay type: in vivo
# Description: (§1) The experiments were conducted on adult male albino Swiss mice weighing 22–26 g. The animals were kept in colony cages under standardized laboratory conditions: natural light–dark cycle 12/12 h, temperature 20–24 °C, air humidity 45–65% and free access to tap water and food (chow pellets). After 7 days of adaptation to laboratory conditions, the animals were randomly assigned to experimental groups consisting of 8 mice. The experimental procedures described herein were approved by the Local Ethics Committee in Lublin, Poland (approval numbers: 71/2020 and 13/2021), and were conducted in accordance with EU Directive 2010/63/EU for animal experiments. All efforts were made to minimize animal suffering and to use only the number of animals necessary to produce reliable scientific data according to the 3Rs rule.
# The timed ivPTZ seizure threshold test was carried out according to the method described by Socała et al.. KA-228 and KA-232 were suspended in a 1% solution of Tween 80 and administered i.p. 30 min before the test. In the experiment with KA-232, two separate control groups were used because the effects of KA-232 at a dose of 50 and 100 mg/kg were determined on different days.
# The ED50 or TD50 values for tested substances in the acute animal models of seizures were calculated using the computer log-probit analysis. Subsequently, the ED50 and TD50 values (±SEM) were statistically analyzed using one-way analysis of variance (ANOVA) followed by the post hoc Dunnett’s test for multiple comparisons. Differences among values were considered statistically significant if p < 0.05. GraphPad Prism version 8 for Windows (GraphPad Software, San Diego, CA, USA) was used as a statistical software program. The results obtained from the acute ivPTZ test and grip strength test were evaluated by a Student’s t test. Fisher’s exact probability test was used to analyze protection from tonic forelimb and hindlimb extension in the ivPTZ test.
# Figure 7 Effects of KA-11, KA-228 and KA-232 on the threshold for the first myoclonic twitch (A), generalized clonus (B) and forelimb tonus (C) in the ivPTZ test in mice. KA-228 and KA-232 were administered i.p., 30 min before seizure induction. Control animals received vehicle. Data are presented as means ± SD (mg/kg PTZ; n = 9–14 animals; the n value varies between groups because some animals were excluded from the study due to unsuccessful catheterization of the vein). The statistical significance for KA-228 and KA-232 was evaluated by a Student’s t test. Data for KA-11 were used from Socała et al. and re-analyzed using one-way ANOVA followed by Dunnett’s post hoc test. * p < 0.05, ** p < 0.01, *** p < 0.001, **** p < 0.0001 vs. the vehicle-treated group (GraphPad Prism 8).
# [2] = system: neuromuscular strength in mice; assay: Grip strength test; assay type: in vivo
# Description: The experiments were conducted on adult male albino Swiss mice weighing 22–26 g. The animals were kept in colony cages under standardized laboratory conditions: natural light–dark cycle 12/12 h, temperature 20–24 °C, air humidity 45–65% and free access to tap water and food (chow pellets). After 7 days of adaptation to laboratory conditions, the animals were randomly assigned to experimental groups consisting of 8 mice. The experimental procedures described herein were approved by the Local Ethics Committee in Lublin, Poland (approval numbers: 71/2020 and 13/2021), and were conducted in accordance with EU Directive 2010/63/EU for animal experiments. All efforts were made to minimize animal suffering and to use only the number of animals necessary to produce reliable scientific data according to the 3Rs rule. The grip strength test was carried out according to the methodology described by Socała et al.. Neuromuscular strength was measured just before the ivPTZ seizure threshold test to limit the number of animals used. The ED50 or TD50 values for tested substances in the acute animal models of seizures were calculated using the computer log-probit analysis. Subsequently, the ED50 and TD50 values (±SEM) were statistically analyzed using one-way analysis of variance (ANOVA) followed by the post hoc Dunnett’s test for multiple comparisons. Differences among values were considered statistically significant if p < 0.05. GraphPad Prism version 8 for Windows (GraphPad Software, San Diego, CA, USA) was used as a statistical software program. The results obtained from the acute ivPTZ test and grip strength test were evaluated by a Student’s t test. Fisher’s exact probability test was used to analyze protection from tonic forelimb and hindlimb extension in the ivPTZ test. Figure 8 Effects of KA-228 and KA-232 on neuromuscular strength in mice. KA-228 and KA-232 were administered i.p., 30 min before the test. Control animals received vehicle. […] The statistical significance was evaluated using the Student’s t test: * p < 0.05 vs. the vehicle-treated group (GraphPad Prism 8).
# [3] = system: neuroblastoma SH-SY5Y; assay: Neurotoxicity, SH-SY5Y cell viability; assay type: cell-based, human
# Text: The assays and protocols used for evaluating the KA-232 ADME-Tox parameters were similar to those described previously for compound KA-11 [6].
# Figure 9 The effect of KA-232 and the reference drug ketoconazole (KE) on CYP3A4 activity (A). The effect of KA-232 and the reference drug quinidine (QD) on CYP2D6 activity (B). The effect of KA-232 and the reference cytostatic drug doxorubicin (DX) on the HepG2 cell line (C) and the SH-SY5Y cell line (D) viability. Statistical significance (* p < 0.05, **** p < 0.0001) was analyzed by Graph Pad Prism 8 software using one-way ANOVA and Bonferroni’s Multiple Comparison Post Test.
# [4] = Chimney test; settings: male, albino Swiss, mouse, in vivo, ip, mice
# Description: as §1
# The chimney test of Boissier et al. was used to quantify the acute adverse-effect potential of KA-228 and KA-232 on motor performance in mice. […]
# The ED50 or TD50 values for tested substances in the acute animal models of seizures were calculated using the computer log-probit analysis. Subsequently, the ED50 and TD50 values (±SEM) were statistically analyzed using one-way analysis of variance (ANOVA) followed by the post hoc Dunnett’s test for multiple comparisons. […] The results obtained from the acute ivPTZ test and grip strength test were evaluated by a Student’s t test. […]
# [5] = biological target: T1, TRPV1 (VR1) (antagonist effect) (Homo sapiens, UniProt Q8NER1); assay: TRPV1 antagonist functional assay (intracellular Ca2+, CHO cells); assay type: cell-based; settings: 10 µM
# T1 construct: host or cells: CHO cells
# Description: Binding studies were carried out commercially in Eurofins Laboratories (Poitiers, France or New Taipei City, Taiwan).
# [6] = biological target: 5-HT1A (agonist radioligand) (Homo sapiens, UniProt P08908); assay: Radioligand binding, 5-HT1A
# [7] = 50 mg/kg i.p., 30 min before ivPTZ
# 5-HT1A (agonist radioligand), sequence (P08908 whole entry): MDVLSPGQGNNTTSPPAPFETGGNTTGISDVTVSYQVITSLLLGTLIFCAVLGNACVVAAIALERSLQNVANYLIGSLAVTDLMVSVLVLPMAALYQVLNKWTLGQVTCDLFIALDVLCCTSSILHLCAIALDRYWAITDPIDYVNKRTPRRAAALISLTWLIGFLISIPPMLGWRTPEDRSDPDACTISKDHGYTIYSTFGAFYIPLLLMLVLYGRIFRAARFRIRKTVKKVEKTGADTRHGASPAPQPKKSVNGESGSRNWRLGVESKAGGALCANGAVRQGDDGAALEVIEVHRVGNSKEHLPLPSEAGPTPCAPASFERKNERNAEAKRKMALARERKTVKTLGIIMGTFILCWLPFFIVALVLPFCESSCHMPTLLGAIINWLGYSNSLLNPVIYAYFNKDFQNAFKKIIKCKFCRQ
# T1 sequence (Q8NER1 whole entry): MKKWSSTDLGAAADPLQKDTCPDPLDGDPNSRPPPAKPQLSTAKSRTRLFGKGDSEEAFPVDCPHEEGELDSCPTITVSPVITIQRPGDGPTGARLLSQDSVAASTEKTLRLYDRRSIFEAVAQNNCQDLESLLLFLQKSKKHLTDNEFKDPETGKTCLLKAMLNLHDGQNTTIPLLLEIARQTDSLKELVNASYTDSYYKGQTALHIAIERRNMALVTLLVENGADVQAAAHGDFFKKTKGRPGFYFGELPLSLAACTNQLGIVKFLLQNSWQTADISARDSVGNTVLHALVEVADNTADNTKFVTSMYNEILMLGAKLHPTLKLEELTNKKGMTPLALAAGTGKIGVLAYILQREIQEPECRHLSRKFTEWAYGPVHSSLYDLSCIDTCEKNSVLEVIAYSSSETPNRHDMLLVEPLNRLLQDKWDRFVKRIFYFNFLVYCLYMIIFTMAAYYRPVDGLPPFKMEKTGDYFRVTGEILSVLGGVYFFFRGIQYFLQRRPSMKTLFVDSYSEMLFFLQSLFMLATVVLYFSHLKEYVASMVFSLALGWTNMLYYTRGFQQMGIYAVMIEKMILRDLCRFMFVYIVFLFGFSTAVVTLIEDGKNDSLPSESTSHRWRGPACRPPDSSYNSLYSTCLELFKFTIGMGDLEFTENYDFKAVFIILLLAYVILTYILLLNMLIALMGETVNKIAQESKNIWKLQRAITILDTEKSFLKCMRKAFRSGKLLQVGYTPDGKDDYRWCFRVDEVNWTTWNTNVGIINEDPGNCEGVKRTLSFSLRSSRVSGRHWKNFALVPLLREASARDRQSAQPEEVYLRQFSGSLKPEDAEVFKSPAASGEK
structure (smiles),measurement,setting,value
"CC(C(=O)N1CCN(c2cccc(C(F)(F)F)c2)CC1)N1C(=O)CC(N(C)C)C1=O.Cl (stereo not shown) [KA-232, 3-(Dimethylamino)-1-(1-oxo-1-(4-(3-(trifluoromethyl)phenyl)piperazin-1-yl)propan-2-yl)pyrrolidine-2,5-dione hydrochloride]",effect on threshold for forelimb tonus,[1]; [7],did not significantly affect
same,effect on threshold for generalized clonus,[1]; [7],did not significantly affect
same,effect on threshold for the first myoclonic twitch,[1]; [7],did not significantly affect
same,mice in which hindlimb tonus did not occur,"[1]; 50 mg/kg i.p., p < 0.01 vs. control",5 out of 9
same,effect on threshold for clonic seizures,"[1]; 100 mg/kg i.p., p < 0.0001",slightly raised
same,effect on threshold for myoclonic seizures,"[1]; 100 mg/kg i.p., p < 0.001",slightly raised
same,mice in which forelimb tonus was completely abolished,"[1]; 100 mg/kg i.p., p < 0.01 vs. control",7 out of 11
same,effect on neuromuscular strength (grip strength),"[2]; 50 mg/kg i.p., 30 min before test",did not produce any significant effects
same,effect on neuromuscular strength (grip strength),"[2]; 100 mg/kg i.p., p < 0.05",slightly decreased
same,SH-SY5Y viability (% of control ± SD),[3]; 10 µM,99.44 ± 5.89 % of control
same,neurotoxic effect on SH-SY5Y cell line,[3]; all used doses,no neurotoxic effect
same,TD50 at 30 min,[4],163 ± 31.2 mg/kg
same,"% Inhibition of control specific binding (functional, antagonist effect)",[5],did not inhibit
same,inhibition at 10 µM,"[5]; CHO, read-out: % Inhibition of control specific binding (functional, antagonist effect)",10.5%
same,% Inhibition of Control Specific Binding,[6]; 10 µM,did not interact
same,inhibition at 10 µM,[6]; read-out: % Inhibition of Control Specific Binding,9.6%
